Laboratory results reported in PMC10010643 (Cancer Chemotherapy and Pharmacology, 2023).
“And” between values parts separate entries of the source, which are not always exact repeats. Equal values may be shown once. “Also recorded” adds a separate entry of the source.

Assay: Safety and tolerability, Part A single ascending-dose phase in healthy participants
Type: in vivo, human
Experimental: A further two cohorts were recruited. […] Each individual participated in one treatment period only, with the exception of the food-effect cohort (cohort A3) in which there were two treatment periods separated by at least 7 days washout. Participants resided at the Clinical Research Unit (CRU) from 1 day ahead of dosing (day − 1) to day 3 and returned for a follow-up visit 5–7 days after their final dose. For all cohorts, doses were administered in the fasted state in the morning of day 1 of Treatment Period 1. In the food-effect cohort, doses were given 30 min after the start of a high-fat breakfast (973 calories total: approximately 150 protein calories, 250 carbohydrate calories, and 500–600 fat calories) on day 1 of Treatment Period 2. For cohorts A1 to A5 in Treatment Period 1, dosing occurred such that one pair (one active and one placebo) were dosed at least 24 h before the remaining participants. Continuation to dose those who remained was at the investigator’s discretion. Escalating doses were administered following satisfactory sponsor and investigator review of the safety and tolerability data (up to 48 h post-final dose) and PK data (up to 24 h post-final dose) from the lower dose levels.
Safety and tolerability assessments included adverse event (AE) monitoring, physical examinations, laboratory assessments (hematology, clinical chemistry, and urinalysis), vital signs (blood pressure, pulse rate, and body temperature) and ECG.
No formal statistical assessment was performed for the safety analysis.

[1] = single and multiple doses, Parts A and B
[2] = single dose 5 mg (1 × 5 mg), fasted
[3] = single dose 20 mg (4 × 5 mg), fasted
[4] = single dose 50 mg (1 × 50 mg), fasted
[5] = single dose 50 mg (1 × 50 mg), fed
[6] = single dose 50 mg (10 × 5 mg), fasted
[7] = single dose 100 mg (2 × 50 mg), fasted
[8] = single dose 200 mg (4 × 50 mg), fasted
[9] = single dose 400 mg (8 × 50 mg), fasted
[10] = treatment-emergent period, Parts A and B

OC[C@H]1O[C@H](Sc2cncc(Br)c2)[C@H](O)[C@@H](n2cc(-c3cc(F)c(F)c(F)c3)nn2)[C@H]1O [GB1211]
TEAE Pain, participants (Part A 100 mg, fasted): 0 n (%)
TEAE Rash, participants (Part A 100 mg, fasted): 0 n (%)
TEAE Respiratory, thoracic and mediastinal disorders, participants (Part A 100 mg, fasted): 0 n (%)
TEAE Skin and subcutaneous tissue disorders, participants (Part A 100 mg, fasted): 0 n (%)
TEAE Wound, participants (Part A 100 mg, fasted): 0 n (%)
TEAE Back pain, participants (Part A 200 mg, fasted): 0 n (%)
TEAE Constipation, participants (Part A 200 mg, fasted): 0 n (%)
TEAE Cough, participants (Part A 200 mg, fasted): 0 n (%)
TEAE Decreased appetite, participants (Part A 200 mg, fasted): 0 n (%)
TEAE Diarrhea, participants (Part A 200 mg, fasted): 0 n (%)
TEAE Dry mouth, participants (Part A 200 mg, fasted): 0 n (%)
TEAE Dry skin, participants (Part A 200 mg, fasted): 0 n (%)
TEAE Dyspepsia, participants (Part A 200 mg, fasted): 0 n (%)
TEAE Gastrointestinal disorders, participants (Part A 200 mg, fasted): 0 n (%)
TEAE General disorders and administration site conditions, participants (Part A 200 mg, fasted): 0 n (%)
TEAE Headache, participants (Part A 200 mg, fasted): 0 n (%)
TEAE Infections and infestations, participants (Part A 200 mg, fasted): 0 n (%)
TEAE Injury, poisoning and procedural complications, participants (Part A 200 mg, fasted): 0 n (%)
TEAE Medical device site reaction, participants (Part A 200 mg, fasted): 0 n (%)
TEAE Metabolism and nutrition disorders, participants (Part A 200 mg, fasted): 0 n (%)
TEAE Musculoskeletal and connective tissue disorders, participants (Part A 200 mg, fasted): 0 n (%)
TEAE Nasopharyngitis, participants (Part A 200 mg, fasted): 0 n (%)
TEAE Nervous system disorders, participants (Part A 200 mg, fasted): 0 n (%)
TEAE Pain, participants (Part A 200 mg, fasted): 0 n (%)
TEAE Rash, participants (Part A 200 mg, fasted): 0 n (%)
TEAE Respiratory, thoracic and mediastinal disorders, participants (Part A 200 mg, fasted): 0 n (%)
TEAE Skin and subcutaneous tissue disorders, participants (Part A 200 mg, fasted): 0 n (%)
TEAE Wound, participants (Part A 200 mg, fasted): 0 n (%)
TEAE Back pain, participants (Part A 400 mg, fasted): 0 n (%)
TEAE Constipation, participants (Part A 400 mg, fasted): 0 n (%)
TEAE Cough, participants (Part A 400 mg, fasted): 0 n (%)
TEAE Decreased appetite, participants (Part A 400 mg, fasted): 0 n (%)
TEAE Diarrhea, participants (Part A 400 mg, fasted): 0 n (%)
TEAE Dry mouth, participants (Part A 400 mg, fasted): 0 n (%)
TEAE Dry skin, participants (Part A 400 mg, fasted): 0 n (%)
TEAE Dyspepsia, participants (Part A 400 mg, fasted): 0 n (%)
TEAE Gastrointestinal disorders, participants (Part A 400 mg, fasted): 0 n (%)
TEAE General disorders and administration site conditions, participants (Part A 400 mg, fasted): 0 n (%)
TEAE Headache, participants (Part A 400 mg, fasted): 0 n (%)
TEAE Infections and infestations, participants (Part A 400 mg, fasted): 0 n (%)
TEAE Injury, poisoning and procedural complications, participants (Part A 400 mg, fasted): 0 n (%)
TEAE Medical device site reaction, participants (Part A 400 mg, fasted): 0 n (%)
TEAE Metabolism and nutrition disorders, participants (Part A 400 mg, fasted): 0 n (%)
TEAE Musculoskeletal and connective tissue disorders, participants (Part A 400 mg, fasted): 0 n (%)
TEAE Nasopharyngitis, participants (Part A 400 mg, fasted): 0 n (%)
TEAE Nervous system disorders, participants (Part A 400 mg, fasted): 0 n (%)
TEAE Pain, participants (Part A 400 mg, fasted): 0 n (%)
TEAE Rash, no. of AEs (Part A 400 mg, fasted): 1
TEAE Rash, participants (Part A 400 mg, fasted): 1 (16.7%) n (%)
TEAE Respiratory, thoracic and mediastinal disorders, participants (Part A 400 mg, fasted): 0 n (%)
TEAE Skin and subcutaneous tissue disorders, no. of AEs (Part A 400 mg, fasted): 1
TEAE Skin and subcutaneous tissue disorders, participants (Part A 400 mg, fasted): 1 (16.7%) n (%)
TEAE Wound, participants (Part A 400 mg, fasted): 0 n (%)
Number of TEAEs, GB1211 group (Part A, all GB1211 doses): 11
Participants with TEAEs, GB1211 group (Part A, all GB1211 doses): 8
Safety concerns [1]: No safety concerns were identified
Tolerability [1]: well tolerated
Number of TEAEs [2]: 4
Participants discontinued due to TEAEs [2]: 0 n (%)
Participants with SAEs [2]: 0 n (%)
Participants with TEAEs [2]: 3 (50.0) n (%) and 3 (50.0%) n (%)
Severity (all TEAEs): Mild [2]: 3 (50.0) n (%)
Severity (all TEAEs): Moderate [2]: 0 n (%)
Severity (all TEAEs): Severe [2]: 0 n (%)
Severity (all TEAEs): Total [2]: 3 (50.0) n (%)
Severity (possibly related to study treatment): Mild [2]: 1 (16.7) n (%)
Severity (possibly related to study treatment): Moderate [2]: 0 n (%)
Severity (possibly related to study treatment): Severe [2]: 0 n (%)
Severity (possibly related to study treatment): Total [2]: 1 (16.7) n (%)
Number of TEAEs [3]: 1
Participants discontinued due to TEAEs [3]: 0 n (%)
Participants with SAEs [3]: 0 n (%)
Participants with TEAEs [3]: 1 (16.7) n (%) and 1 (16.7%) n (%)
Severity (all TEAEs): Mild [3]: 1 (16.7) n (%)
Severity (all TEAEs): Moderate [3]: 0 n (%)
Severity (all TEAEs): Severe [3]: 0 n (%)
Severity (all TEAEs): Total [3]: 1 (16.7) n (%)
Severity (possibly related to study treatment): Mild [3]: 0 n (%)
Severity (possibly related to study treatment): Moderate [3]: 0 n (%)
Severity (possibly related to study treatment): Severe [3]: 0 n (%)
Severity (possibly related to study treatment): Total [3]: 0 n (%)
Number of TEAEs [4]: 1
Participants discontinued due to TEAEs [4]: 0 n (%)
Participants with SAEs [4]: 0 n (%)
Participants with TEAEs [4]: 1 (16.7) n (%) and 1 (16.7%) n (%)
Severity (all TEAEs): Mild [4]: 1 (16.7) n (%)
Severity (all TEAEs): Moderate [4]: 0 n (%)
Severity (all TEAEs): Severe [4]: 0 n (%)
Severity (all TEAEs): Total [4]: 1 (16.7) n (%)
Severity (possibly related to study treatment): Mild [4]: 0 n (%)
Severity (possibly related to study treatment): Moderate [4]: 0 n (%)
Severity (possibly related to study treatment): Severe [4]: 0 n (%)
Severity (possibly related to study treatment): Total [4]: 0 n (%)
Number of TEAEs [5]: 1
Participants discontinued due to TEAEs [5]: 0 n (%)
Participants with SAEs [5]: 0 n (%)
Participants with TEAEs [5]: 1 (16.7) n (%) and 1 (16.7%) n (%)
Severity (all TEAEs): Mild [5]: 0 n (%)
Severity (all TEAEs): Moderate [5]: 1 n (%) and 1 (16.7) n (%)
Severity (all TEAEs): Severe [5]: 0 n (%)
Severity (all TEAEs): Total [5]: 1 (16.7) n (%)
Severity (possibly related to study treatment): Mild [5]: 0 n (%)
Severity (possibly related to study treatment): Moderate [5]: 0 n (%)
Severity (possibly related to study treatment): Severe [5]: 0 n (%)
Severity (possibly related to study treatment): Total [5]: 0 n (%)
Number of TEAEs [6]: 1
Participants discontinued due to TEAEs [6]: 0 n (%)
Participants with SAEs [6]: 0 n (%)
Participants with TEAEs [6]: 1 (16.7) n (%) and 1 (16.7%) n (%)
Severity (all TEAEs): Mild [6]: 1 (16.7) n (%)
Severity (all TEAEs): Moderate [6]: 0 n (%)
Severity (all TEAEs): Severe [6]: 0 n (%)
Severity (all TEAEs): Total [6]: 1 (16.7) n (%)
Severity (possibly related to study treatment): Mild [6]: 0 n (%)
Severity (possibly related to study treatment): Moderate [6]: 0 n (%)
Severity (possibly related to study treatment): Severe [6]: 0 n (%)
Severity (possibly related to study treatment): Total [6]: 0 n (%)
Number of TEAEs [7]: 2
Participants discontinued due to TEAEs [7]: 0 n (%)
Participants with SAEs [7]: 0 n (%)
Participants with TEAEs [7]: 1 (16.7) n (%) and 1 (16.7%) n (%)
Severity (all TEAEs): Mild [7]: 1 (16.7) n (%)
Severity (all TEAEs): Moderate [7]: 0 n (%)
Severity (all TEAEs): Severe [7]: 0 n (%)
Severity (all TEAEs): Total [7]: 1 (16.7) n (%)
Severity (possibly related to study treatment): Mild [7]: 1 (16.7) n (%)
Severity (possibly related to study treatment): Moderate [7]: 0 n (%)
Severity (possibly related to study treatment): Severe [7]: 0 n (%)
Severity (possibly related to study treatment): Total [7]: 1 (16.7) n (%)
Number of TEAEs [8]: 0
Participants discontinued due to TEAEs [8]: 0 n (%)
Participants with SAEs [8]: 0 n (%)
Participants with TEAEs [8]: 0 n (%)
Severity (all TEAEs): Mild [8]: 0 n (%)
Severity (all TEAEs): Moderate [8]: 0 n (%)
Severity (all TEAEs): Severe [8]: 0 n (%)
Severity (all TEAEs): Total [8]: 0 n (%)
Severity (possibly related to study treatment): Mild [8]: 0 n (%)
Severity (possibly related to study treatment): Moderate [8]: 0 n (%)
Severity (possibly related to study treatment): Severe [8]: 0 n (%)
Severity (possibly related to study treatment): Total [8]: 0 n (%)
Number of TEAEs [9]: 1
Participants discontinued due to TEAEs [9]: 0 n (%)
Participants with SAEs [9]: 0 n (%)
Participants with TEAEs [9]: 1 (16.7) n (%) and 1 (16.7%) n (%)
Severity (all TEAEs): Mild [9]: 1 (16.7) n (%)
Severity (all TEAEs): Moderate [9]: 0 n (%)
Severity (all TEAEs): Severe [9]: 0 n (%)
Severity (all TEAEs): Total [9]: 1 (16.7) n (%)
Severity (possibly related to study treatment): Mild [9]: 1 (16.7) n (%)
Severity (possibly related to study treatment): Moderate [9]: 0 n (%)
Severity (possibly related to study treatment): Severe [9]: 0 n (%)
Severity (possibly related to study treatment): Total [9]: 1 (16.7) n (%)
Clinical laboratory evaluation, vital signs, ECG or physical examination (single or multiple GB1211 doses): no treatment- or dose-related trend; also recorded: no clinically significant finding
Serious AEs or severe AEs [10]: no severe TEAEs or serious AEs reported
Study discontinuations due to AEs [10]: no study discontinuations due to AEs
